From patent publication US10717716B2, “1,3,4-oxadiazole derivative compounds as histone deacetylase 6 inhibitor, and the pharmaceutical composition comprising the same” (Chong Kun Dang Pharmaceutical Corp., priority 2015, dated 2020) come the findings set out here.

The target in this test is T1, human recombinant HDAC6 (Homo sapiens, UniProt Q9UBN7).
T1 construct: purchased Calbiochem 382180
T1 sequence (Q9UBN7 1-1215): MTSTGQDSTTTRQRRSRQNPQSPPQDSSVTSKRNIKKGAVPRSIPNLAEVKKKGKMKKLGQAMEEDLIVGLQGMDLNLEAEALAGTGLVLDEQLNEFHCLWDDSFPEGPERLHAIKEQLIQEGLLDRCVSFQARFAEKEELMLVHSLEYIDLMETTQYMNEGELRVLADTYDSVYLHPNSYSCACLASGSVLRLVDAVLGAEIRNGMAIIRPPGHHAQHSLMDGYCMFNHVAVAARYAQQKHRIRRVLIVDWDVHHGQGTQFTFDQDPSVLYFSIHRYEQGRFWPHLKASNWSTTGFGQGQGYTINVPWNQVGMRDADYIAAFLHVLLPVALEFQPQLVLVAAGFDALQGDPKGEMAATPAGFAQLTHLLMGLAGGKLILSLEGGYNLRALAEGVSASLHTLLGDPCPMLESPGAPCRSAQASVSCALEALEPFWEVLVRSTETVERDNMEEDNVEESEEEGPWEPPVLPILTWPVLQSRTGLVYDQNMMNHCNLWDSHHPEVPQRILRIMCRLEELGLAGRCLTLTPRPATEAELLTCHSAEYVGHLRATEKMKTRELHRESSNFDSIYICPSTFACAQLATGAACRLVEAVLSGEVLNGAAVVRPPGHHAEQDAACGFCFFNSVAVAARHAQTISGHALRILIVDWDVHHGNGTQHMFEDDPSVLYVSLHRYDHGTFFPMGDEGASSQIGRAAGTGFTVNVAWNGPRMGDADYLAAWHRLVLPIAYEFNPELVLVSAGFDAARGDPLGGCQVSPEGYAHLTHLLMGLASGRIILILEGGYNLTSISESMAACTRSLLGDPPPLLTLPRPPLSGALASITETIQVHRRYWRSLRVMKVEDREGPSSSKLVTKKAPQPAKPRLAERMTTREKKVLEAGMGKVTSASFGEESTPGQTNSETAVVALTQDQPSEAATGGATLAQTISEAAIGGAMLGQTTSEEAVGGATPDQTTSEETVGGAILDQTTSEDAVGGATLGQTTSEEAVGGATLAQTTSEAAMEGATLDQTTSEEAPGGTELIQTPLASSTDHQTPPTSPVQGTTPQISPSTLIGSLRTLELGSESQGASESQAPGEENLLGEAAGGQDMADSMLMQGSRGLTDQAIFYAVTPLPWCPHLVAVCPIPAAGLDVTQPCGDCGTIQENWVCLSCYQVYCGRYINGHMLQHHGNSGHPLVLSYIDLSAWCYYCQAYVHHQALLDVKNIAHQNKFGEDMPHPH
Kind of test: HDAC6 enzyme activity inhibition assay (HDAC Fluorimetric Drug Discovery Kit). The test is classed as biochemical. The settings on record: for HDAC6 selectivity (fold): HDAC6 over HDAC1; for pIC50: human recombinant HDAC6, same protocol as HDAC1, read-out: HDAC6. The method in brief: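 Fluorimetric deacetylase assay: 5-fold serial compound dilutions, 0.3 μg recombinant human enzyme (HDAC1 or HDAC6, same protocol), 10 μM Fluor de Lys-SIRT1 substrate, 60 min at 30 °C. Signal developed 30 min, measured at 360/460 nm; IC50 values derived.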

pIC50: −log10 of the molar value.

With `Cc1ccc(N(Cc2ccc(-c3nnc(C(F)F)o3)cn2)C(=O)N2CCOCC2)c(F)c1` [Compound 21855, N-((5-(5-(difluoromethyl)-1,3,4-oxadiazol-2-yl)pyridin-2-yl)methyl)-N-(2-fluoro-4-methylphenyl)morpholine-4-carboxamide], the “HDAC6 selectivity (fold)” value came out at 248 fold and the pIC50 is 7.40.

For `Cc1ccc(N(Cc2ccc(-c3nnc(C(F)F)o3)cc2F)C(=O)N2CCOCC2)c(F)c1` [Compound 21856, N-(4-(5-(difluoromethyl)-1,3,4-oxadiazol-2-yl)-2-fluorobenzyl)-N-(2-fluoro-4-methylphenyl)morpholine-4-carboxamide], the “HDAC6 selectivity (fold)” value was 105 fold and the pIC50 was 7.02.

As to `CCN1CCN(C(=O)N(Cc2ccc(-c3nnc(C(F)F)o3)cc2F)c2ccc(Cl)cc2)CC1` [Compound 21881, N-(4-Chlorophenyl)-N-(4-(5-(difluoromethyl)-1,3,4-oxadiazol-2-yl)-2-fluorobenzyl)-4-ethylpiperazine-1-carboxamide], the “HDAC6 selectivity (fold)” value worked out at 204 fold and the pIC50 is 7.31.

For the compound `CCN1CCN(C(=O)N(Cc2ccc(-c3nnc(C(F)F)o3)cn2)c2ccc(Cl)cc2)CC1` [Compound 21882, N-(4-Chlorophenyl)-N-((5-(5-(difluoromethyl)-1,3,4-oxadiazol-2-yl)pyridin-2-yl)methyl)-4-ethylpiperazine-1-carboxamide], the “HDAC6 selectivity (fold)” value is 251 fold and the pIC50 is 7.40.

In the case of `CCN1CCN(C(=O)N(Cc2ccc(-c3nnc(C(F)F)o3)cc2)c2cccc(F)c2)CC1` [Compound 21883, N-(4-(5-(Difluoromethyl)-1,3,4-oxadiazol-2-yl)benzyl)-4-ethyl-N-(3-fluorophenyl)piperazine-1-carboxamide], the “HDAC6 selectivity (fold)” value is listed as 268 fold and the pIC50 was 7.43.

Consider `CCN1CCN(C(=O)N(Cc2ccc(-c3nnc(C(F)F)o3)cc2F)c2cccc(F)c2)CC1` [Compound 21884, N-(4-(5-(Difluoromethyl)-1,3,4-oxadiazol-2-yl)-2-fluorobenzyl)-4-ethyl-N-(3-fluorophenyl)piperazine-1-carboxamide], for which the “HDAC6 selectivity (fold)” value worked out at 303 fold and the pIC50 was 7.48.

In the case of `CCN1CCN(C(=O)N(Cc2ccc(-c3nnc(C(F)F)o3)cn2)c2cccc(F)c2)CC1` [Compound 21885, N-((5-(5-(Difluoromethyl)-1,3,4-oxadiazol-2-yl)pyridin-2-yl)methyl)-4-ethyl-N-(3-fluorophenyl)piperazine-1-carboxamide], the “HDAC6 selectivity (fold)” value is listed as 555 fold and the pIC50 is 7.74.

In the case of `CCN1CCN(C(=O)N(Cc2ccc(-c3nnc(C(F)F)o3)cc2)c2ccc(F)cc2)CC1` [Compound 21886, N-(4-(5-(Difluoromethyl)-1,3,4-oxadiazol-2-yl)benzyl)-4-ethyl-N-(4-fluorophenyl)piperazine-1-carboxamide], the “HDAC6 selectivity (fold)” value is 218 fold and the pIC50 was 7.34.

Regarding `CCN1CCN(C(=O)N(Cc2ccc(-c3nnc(C(F)F)o3)cc2F)c2ccc(F)cc2)CC1` [Compound 21887, N-(4-(5-(Difluoromethyl)-1,3,4-oxadiazol-2-yl)-2-fluorobenzyl)-4-ethyl-N-(4-fluorophenyl)piperazine-1-carboxamide], the “HDAC6 selectivity (fold)” value is recorded as 218 fold and the pIC50 is 7.34.

Turning to `CCN1CCN(C(=O)N(Cc2ccc(-c3nnc(C(F)F)o3)cn2)c2ccc(F)cc2)CC1` [Compound 21888, N-((5-(5-(Difluoromethyl)-1,3,4-oxadiazol-2-yl)pyridin-2-yl)methyl)-4-ethyl-N-(4-fluorophenyl)piperazine-1-carboxamide], the “HDAC6 selectivity (fold)” value is recorded as 388 fold and the pIC50 is 7.59.

On to `CCN1CCN(C(=O)N(Cc2ccc(-c3nnc(C(F)F)o3)cc2)c2cccc(OC)c2)CC1` [Compound 21889, N-(4-(5-(Difluoromethyl)-1,3,4-oxadiazol-2-yl)benzyl)-4-ethyl-N-(3-methoxyphenyl)piperazine-1-carboxamide], for which the “HDAC6 selectivity (fold)” value turned out to be 103 fold and the pIC50 was 7.01.

For the compound `CCN1CCN(C(=O)N(Cc2ccc(-c3nnc(C(F)F)o3)cc2F)c2cccc(OC)c2)CC1` [Compound 21890, N-(4-(5-(Difluoromethyl)-1,3,4-oxadiazol-2-yl)-2-fluorobenzyl)-4-ethyl-N-(3-methoxyphenyl)piperazine-1-carboxamide], the “HDAC6 selectivity (fold)” value was determined as 185 fold and the pIC50 was 7.27.

On to `CCN1CCN(C(=O)N(Cc2ccc(-c3nnc(C(F)F)o3)cn2)c2cccc(OC)c2)CC1` [Compound 21891, N-((5-(5-(Difluoromethyl)-1,3,4-oxadiazol-2-yl)pyridin-2-yl)methyl)-4-ethyl-N-(3-methoxyphenyl)piperazine-1-carboxamide], for which the “HDAC6 selectivity (fold)” value is given as 174 fold and the pIC50 is 7.24.

Consider `CC(C)(C)CN1CCN(Cc2ccc(N(Cc3ccc(-c4nnc(C(F)F)o4)cc3F)C(=O)N3CCS(=O)(=O)CC3)cc2)CC1` [Compound 21895, N-(4-(5-(difluoromethyl)-1,3,4-oxadiazol-2-yl)-2-fluorobenzyl)-N-(4-((4-neopentylpiperazin-1-yl)methyl)phenyl)thiomorpholine-4-carboxamide 1,1-dioxide], for which the “HDAC6 selectivity (fold)” value stood at 42 fold and the pIC50 was 6.63.

Take `O=C(N1CCS(=O)(=O)CC1)N(Cc1ccc(-c2nnc(C(F)F)o2)cc1F)c1ccc(CN2CCN(Cc3ccccc3)CC2)cc1` [Compound 21900, N-(4-((4-benzylpiperazin-1-yl)methyl)phenyl)-N-(4-(5-(difluoromethyl)-1,3,4-oxadiazol-2-yl)-2-fluorobenzyl)thiomorpholine-4-carboxamide 1,1-dioxide]: the “HDAC6 selectivity (fold)” value is reported as 53 fold and the pIC50 was 6.72.

On to `CC(C)(F)CN1CCN(Cc2ccc(N(Cc3ccc(-c4nnc(C(F)F)o4)cc3F)C(=O)N3CCS(=O)(=O)CC3)cc2)CC1` [Compound 21901, N-(4-(5-(difluoromethyl)-1,3,4-oxadiazol-2-yl)-2-fluorobenzyl)-N-(4-((4-(2-fluoro-2-methylpropyl)piperazin-1-yl)methyl)phenyl)thiomorpholine-4-carboxamide 1,1-dioxide], for which the “HDAC6 selectivity (fold)” value turned out to be 29 fold and the pIC50 was 6.46.

For the compound `O=C(N1CCS(=O)(=O)CC1)N(Cc1ccc(-c2nnc(C(F)F)o2)cc1F)c1ccc(CN2CCN(CC(F)(F)F)CC2)cc1` [Compound 21902, N-(4-(5-(difluoromethyl)-1,3,4-oxadiazol-2-yl)-2-fluorobenzyl)-N-(4-((4-(2,2,2-trifluoroethyl)piperazin-1-yl)methyl)phenyl)thiomorpholine-4-carboxamide 1,1-dioxide], the “HDAC6 selectivity (fold)” value was found to be 25 fold and the pIC50 is 6.40.

Consider `O=C(N1CCOCC1)N(Cc1ccc(-c2nnc(C(F)F)o2)cc1F)C12CC3CC(CC(C3)C1)C2` [Compound 21910, N-((3s,5s,7s)-adamantan-1-yl)-N-(4-(5-(difluoromethyl)-1,3,4-oxadiazol-2-yl)-2-fluorobenzyl)morpholine-4-carboxamide], for which the “HDAC6 selectivity (fold)” value was determined as 21 fold and the pIC50 is 6.33.

For the compound `O=C(N1CCS(=O)(=O)CC1)N(Cc1ccc(-c2nnc(C(F)F)o2)cc1F)c1ccc(CN2CC(F)(F)C2)cc1` [Compound 21914, N-(4-((3,3-difluoroazetidin-1-yl)methyl)phenyl)-N-(4-(5-(difluoromethyl)-1,3,4-oxadiazol-2-yl)-2-fluorobenzyl)thiomorpholine-4-carboxamide 1,1-dioxide], the “HDAC6 selectivity (fold)” value is 63 fold and the pIC50 is 6.80.

As to `O=C(N1CCS(=O)(=O)CC1)N(Cc1ccc(-c2nnc(C(F)F)o2)cc1F)c1ccc(CN2CCC(F)(F)C2)cc1` [Compound 21915, N-(4-(5-(difluoromethyl)-1,3,4-oxadiazol-2-yl)-2-fluorobenzyl)-N-(4-((3,3-difluoropyrrolidin-1-yl)methyl)phenyl)thiomorpholine-4-carboxamide 1,1-dioxide], the “HDAC6 selectivity (fold)” value is reported as 62 fold and the pIC50 was 6.80.
